Data as given in patent publication US7279497B2, “Benzopyran derivatives substituted with secondary amines including imidazole, their preparation and pharmaceutical compositions containing them” (Korea Research Institute of Chemical Technology, priority 2002, dated 2007).

Tests used:
SPF SD rats = conditions: rat, in vivo, po;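 further: Six-week-old animals, two per group, followed across an observation period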
[1] = system: HUVECs (Human umbilical vein endothelial cells); test: Inhibitory effects on HUVEC tube formation; type: cell-based;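 further: from minus no inhibition up to plus-plus-plus complete inhibition versus vehicle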
Protocol: The Inhibitory effects of the compounds of the formula 1 on angiogenesis were meassured by the vascular tube formation assay of HUVECs (Human umbilical vein endothelial cells), which is one of the major angiogenic steps.
HUVECs were isolated from human umbilical vein, and cultured. HUVECs within passage 5 from confluent cultures were detached, and plated onto a layer of a bFGF (basic fibroblast growth factor)-reduced and polymerized Matrigel. Matrigel cultures were incubated with or without the compounds of formula 1, and the changes of cell morphology were captured through a phase contrast microscope and photographed.

COC(OC)[C@@]1(C)Oc2ccc([N+](=O)[O-])cc2[C@@H](N(Cc2ncc[nH]2)c2ccc(C)cc2C)[C@@H]1O [Example 9, (2S,3S,4R)-3,4-dihydro-2-dimethoxymethyl-3-hydroxy-2-methyl-6-nitro-4-[N-(2,4-dimethylphenyl)-N-(1H-imidazol-2-ylmethyl)amino]-2H-1-benzopyran] was tested, and the “clinical symptoms, body weight and mortality” value (“clinical symptoms” below) (SPF SD rats) was “no significant changes” and the Tube formation ([1]; 50 μM) was “+”.
COC(OC)[C@@]1(C)Oc2ccc(C#N)cc2[C@@H](N(Cc2ncc[nH]2)c2ccc(Cl)cc2)[C@@H]1O [Example 22, (2S,3S,4R)-6-cyano-3,4-dihydro-2-dimethoxymethyl-3-hydroxy-2-methyl-4-[N-(4-chlorophenyl)-N-(1H-imidazol-2-ylmethyl)amino]-2H-1-benzopyran] was tested, and the “clinical symptoms” value (SPF SD rats) was “no significant changes”, the Tube formation ([1]; 10 μM) was “+” and the Tube formation ([1]; 100 μM) was “++”.
For COC(OC)[C@@]1(C)Oc2ccc([N+](=O)[O-])cc2[C@@H](N(Cc2ncc[nH]2)c2cccc(Cl)c2)[C@@H]1O [Example 20, (2S,3S,4R)-3,4-dihydro-2-dimethoxymethyl-3-hydroxy-2-methyl-6-nitro-4-[N-(3-chlorophenyl)-N-(1H-imidazol-2-ylmethyl)amino]-2H-1-benzopyran], the “clinical symptoms” value (SPF SD rats) was “no significant changes”.
COC(OC)[C@@]1(C)Oc2ccc(N)cc2[C@@H](N(Cc2ncc[nH]2)c2ccccc2C(C)C)[C@@H]1O [Example 34, (2S,3S,4R)-6-amino-3,4-dihydro-2-dimethoxymethyl-3-hydroxy-2-methyl-4-[N-(2-isopropylphenyl)-N-(1H-imidazol-2-ylmethyl)amino]-2H-1-benzopyran] was tested, and the “clinical symptoms” value (SPF SD rats) was “no significant changes”.
In the case of COC(OC)[C@]1(C)Oc2ccc([N+](=O)[O-])cc2[C@H](N(Cc2ncc[nH]2)c2cccc(Cl)c2)[C@H]1O [Example 19, (2R,3R,4S)-3,4-dihydro-2-dimethoxymethyl-3-hydroxy-2-methyl-6-nitro-4-[N-(3-chlorophenyl)-N-(1H-imidazol-2-ylmethyl)amino]-2H-1-benzopyran], the “clinical symptoms” value (SPF SD rats) is reported as “no significant changes”.
For COc1ccc(N(Cc2ncc[nH]2)[C@@H]2c3cc(N)ccc3O[C@](C)(C(OC)OC)[C@H]2O)cc1 [Example 32, (2S,3S,4R)-6-amino-3,4-dihydro-2-dimethoxymethyl-3-hydroxy-2-methyl-4-[N-(4-methoxyphenyl)-N-(1H-imidazol-2-ylmethyl)amino]-2H-1-benzopyran], the “clinical symptoms” value (SPF SD rats) was “no significant changes”.
COC(OC)[C@@]1(C)Oc2ccc(N)cc2[C@@H](N(Cc2ncc[nH]2)c2ccc(C)cc2C)[C@@H]1O [Example 33, (2S,3S,4R)-6-amino-3,4-dihydro-2-dimethoxymethyl-3-hydroxy-2-methyl-4-[N-(2,4-dimethylphenyl)-N-(1H-imidazol-2-ylmethyl)amino]-2H-1-benzopyran] was tested, and the “clinical symptoms” value (SPF SD rats) was “no significant changes”.
In the case of COC(OC)[C@@]1(C)Oc2ccc([N+](=O)[O-])cc2[C@@H](N(Cc2ncc[nH]2)c2cccc(C)c2C)[C@@H]1O [Example 11, (2S,3S,4R)-3,4-dihydro-2-dimethoxymethyl-3-hydroxy-2-methyl-6-nitro-4-[N-(2,3-dimethylphenyl)-N-(1H-imidazol-2-ylmethyl)amino]-2H-1-benzopyran], the “clinical symptoms” value (SPF SD rats) is reported as “no significant changes”.
In the case of COC(OC)[C@]1(C)Oc2ccc([N+](=O)[O-])cc2[C@H](N(Cc2ncc[nH]2)c2ccc(OC(F)(F)F)cc2)[C@H]1O [Example 21, (2R,3R,4S)-3,4-dihydro-2-dimethoxymethyl-3-hydroxy-2-methyl-6-nitro-4-[N-(4-trifluoromethoxyphenyl)-N-(1H-imidazol-2-ylmethyl)amino]-2H-1-benzopyran], the “clinical symptoms” value (SPF SD rats) is reported as “no significant changes”.
COc1ccccc1N(Cc1ncc[nH]1)[C@@H]1c2cc(N)ccc2O[C@](C)(C(OC)OC)[C@H]1O [Example 31, (2S,3S,4R)-6-amino-3,4-dihydro-2-dimethoxymethyl-3-hydroxy-2-methyl-4-[N-(2-methoxyphenyl)-N-(1H-imidazol-2-ylmethyl)amino]-2H-1-benzopyran] was tested, and the “clinical symptoms” value (SPF SD rats) was “no significant changes”.
With COc1ccccc1N(Cc1ncc[nH]1)[C@@H]1c2cc([N+](=O)[O-])ccc2O[C@](C)(C(OC)OC)[C@H]1O [Example 16, (2S,3S,4R)-3,4-dihydro-2-dimethoxymethyl-3-hydroxy-2-methyl-6-nitro-4-[N-(2-methoxyphenyl)-N-(1H-imidazol-2-ylmethyl)amino]-2H-1-benzopyran] the “clinical symptoms” value (SPF SD rats) was “no significant changes”.
With COC(OC)[C@@]1(C)Oc2ccc(N)cc2[C@@H](N(Cc2ncc[nH]2)c2cccc(C)c2C)[C@@H]1O [Example 30, (2S,3S,4R)-6-amino-3,4-dihydro-2-dimethoxymethyl-3-hydroxy-2-methyl-4-[N-(2,3-dimethylphenyl)-N-(1H-imidazol-2-ylmethyl)amino]-2H-1-benzopyran] the “clinical symptoms” value (SPF SD rats) was “no significant changes”.
In the case of COC(OC)[C@]1(C)Oc2ccc([N+](=O)[O-])cc2[C@H](N(Cc2ncc[nH]2)c2ccccc2C(C)C)[C@H]1O [Example 17, (2R,3R,4S)-3,4-dihydro-2-dimethoxymethyl-3-hydroxy-2-methyl-6-nitro-4-[N-(2-isopropylphenyl)-N-(1H-imidazol-2-ylmethyl)amino]-2H-1-benzopyran], the “clinical symptoms” value (SPF SD rats) is reported as “no significant changes”.
With COC(OC)[C@@]1(C)Oc2ccc([N+](=O)[O-])cc2[C@@H](N(Cc2ncc[nH]2)c2ccc(F)cc2)[C@@H]1O [Example 15, (2S,3S,4R)-3,4-dihydro-2-dimethoxymethyl-3-hydroxy-2-methyl-6-nitro-4-[N-(4-fluorophenyl)-N-(1H-imidazol-2-ylmethyl)amino]-2H-1-benzopyran] the “clinical symptoms” value (SPF SD rats) was “no significant changes”.
In the case of COC(OC)[C@@]1(C)Oc2ccc(N)cc2[C@@H](N(Cc2ncc[nH]2)c2ccc(F)cc2)[C@@H]1O [Example 37, (2S,3S,4R)-6-amino-3,4-dihydro-2-dimethoxymethyl-3-hydroxy-2-methyl-4-[N-(4-fluorophenyl)-N-(1H-imidazol-2-ylmethyl)amino]-2H-1-benzopyran], the “clinical symptoms” value (SPF SD rats) is reported as “no significant changes”.
For COC(OC)[C@@]1(C)Oc2ccc(N)cc2[C@@H](N(Cc2ncc[nH]2)c2ccc(OC(F)(F)F)cc2)[C@@H]1O [Example 35, (2S,3S,4R)-6-amino-3,4-dihydro-2-dimethoxymethyl-3-hydroxy-2-methyl-4-[N-(4-trifluoromethoxyphenyl)-N-(1H-imidazol-2-ylmethyl)amino]-2H-1-benzopyran], the “clinical symptoms” value (SPF SD rats) was “no significant changes”.
In the case of COC(OC)[C@@]1(C)Oc2ccc(N)cc2[C@@H](N(Cc2ncc[nH]2)c2ccc(Br)cc2)[C@@H]1O [Example 36, (2S,3S,4R)-6-amino-3,4-dihydro-2-dimethoxymethyl-3-hydroxy-2-methyl-4-[N-(4-bromophenyl)-N-(1H-imidazol-2-ylmethyl)amino]-2H-1-benzopyran], the “clinical symptoms” value (SPF SD rats) is reported as “no significant changes”.
In the case of COc1ccccc1N(Cc1ncc[nH]1)[C@H]1c2cc([N+](=O)[O-])ccc2O[C@@](C)(C(OC)OC)[C@@H]1O [Example 18, (2R,3R,4S)-3,4-dihydro-2-dimethoxymethyl-3-hydroxy-2-methyl-6-nitro-4-[N-(2-methoxyphenyl)-N-(1H-imidazol-2-ylmethyl)amino]-2H-1-benzopyran], the “clinical symptoms” value (SPF SD rats) is reported as “no significant changes”.
